Measurements from patent publication US20230017786A1, “DEXTR[…] A DISEASE-MODIFYING TREATMENT FOR NEUROPSYCHIATRIC DISORDERS AND DISEASES” (priority 2020, published 2023).

Experiments:
[1] = biological target: rat GluN1-GluN2B receptor (Rattus norvegicus, UniProt P35439+Q00960); details: Banke and Traynelis, 2003; read-out: potency; cited from earlier work
[2] = biological target: T1, human NMDA receptor GluN1-GluN2B (Homo sapiens, UniProt Q05586+Q13224); experiment: FLIPR calcium assay, quinolinic acid, gentamicin, dextromethadone (Example 5 Part II), GluN1-GluN2B-CHO; assay type: cell-based; details: for calcium response (mean±SEM): GluN2B, n=42; for Response at max conc (%): quinolinic acid CRC, max 1,000 μM
T1 construct: expressed in transfected cells; host or cells: CHO
Experimental: (§1) Quinolinic acid or gentamicin CRCs were also produced, in presence of 10 μM glycine.
(§2) Test items were evaluated in FLIPR for their ability to modulate, alone or in combination, calcium entry in presence of […], using four CHO cell lines expressing diheteromeric human NMDA receptor (NMDAR): GluN-/GluN2A-CHO, GluN1-GluN2B-CHO, GluN1-GluN2C-CHO, GluN1-GluN2D-CHO.
(§3) The first aim of the study was to evaluate quinolinic acid or gentamicin CRC effect in the presence of 10 μM glycine.
(§4) FLIPR determination of intracellular calcium level was used as a read-out for NMDAR activation.
(§5) 400× compound plate was stored at −20° C. till FLIPR experimental day.
(§6) A 4× compound plate was generated from 400× compound plate by addition of up to 30 μl/well of compound buffer on FLIPR experimental day.
(§7) A FLIPR system was used to monitor intracellular calcium level in NMDAR cell lines, pre-loaded for 1 hour with Fluo-4, and then washed with assay buffer.
(§8) Y=Bottom+(Top−Bottom)/(1+10^((LogEC50−X)*HillSlope))
(§9) Test item CRC data were plotted by Prism 8 GraphPad software, in the different experimental conditions. And, column analysis, performed by Prism 8 GraphPad software, was one way ANOVA followed by Tukey's multiple comparisons test, with a single pooled variance.

[3] = biological target: T2, human NMDA receptor GluN1-GluN2D (Homo sapiens, UniProt O15399+Q05586); experiment: FLIPR calcium assay, quinolinic acid, gentamicin, dextromethadone (Example 5 Part II), GluN1-GluN2D-CHO; assay type: cell-based; details: for calcium response (mean±SEM): GluN2D, n=42
T2 construct: expressed in transfected cells; host or cells: CHO
Experimental: as §1, §2, §3, §4, §5, §6, §7, §8, §9

[4] = biological target: T3, human NMDA receptor GluN1-GluN2C (Homo sapiens, UniProt Q05586+Q14957); experiment: FLIPR calcium assay, quinolinic acid, gentamicin, dextromethadone (Example 5 Part II), GluN1-GluN2C-CHO; assay type: cell-based; details: for calcium response (mean±SEM): GluN2C, n=42
T3 construct: expressed in transfected cells; host or cells: CHO
Experimental: as §1, §2, §3, §4, §5, §6, §7, §8, §9

[5] = biological target: T4, human NMDA receptor GluN1-GluN2A (Homo sapiens, UniProt Q05586+Q12879); experiment: FLIPR calcium assay, quinolinic acid, gentamicin, dextromethadone (Example 5 Part II), GluN1-GluN2A-CHO; assay type: cell-based; set-up: calcium response (mean±SEM): unit not given here; details: for calcium response (mean±SEM): GluN2A, n=42
T4 construct: expressed in transfected cells; host or cells: CHO
Experimental: as §1, §2, §3, §4, §5, §6, §7, §8, §9

[6] = 0.04 μM L-Glu + 100 μM QA, 10 μM glycine
[7] = 0.04 μM L-Glu + 1000 μM QA, 10 μM glycine
[8] = 0.2 μM L-Glu + 100 μM QA, 10 μM glycine
[9] = 0.2 μM L-Glu + 1000 μM QA, 10 μM glycine
[10] = 100 μM QA, 10 μM glycine, 100% = 10 μM L-glutamate plus 10 μM glycine
[11] = 1000 μM QA, 10 μM glycine, 100% = 10 μM L-glutamate plus 10 μM glycine
[12] = 1000 μM QA, 10 μM glycine, 100% = 10 μM L-glutamate plus 10 μM glycine, listed as QA
[13] = CRC in presence of 10 μM glycine
[14] = quinolinic acid CRC, max 1,000 μM, 10 μM glycine

T4 sequence (Q12879 23-1464, other chains not shown): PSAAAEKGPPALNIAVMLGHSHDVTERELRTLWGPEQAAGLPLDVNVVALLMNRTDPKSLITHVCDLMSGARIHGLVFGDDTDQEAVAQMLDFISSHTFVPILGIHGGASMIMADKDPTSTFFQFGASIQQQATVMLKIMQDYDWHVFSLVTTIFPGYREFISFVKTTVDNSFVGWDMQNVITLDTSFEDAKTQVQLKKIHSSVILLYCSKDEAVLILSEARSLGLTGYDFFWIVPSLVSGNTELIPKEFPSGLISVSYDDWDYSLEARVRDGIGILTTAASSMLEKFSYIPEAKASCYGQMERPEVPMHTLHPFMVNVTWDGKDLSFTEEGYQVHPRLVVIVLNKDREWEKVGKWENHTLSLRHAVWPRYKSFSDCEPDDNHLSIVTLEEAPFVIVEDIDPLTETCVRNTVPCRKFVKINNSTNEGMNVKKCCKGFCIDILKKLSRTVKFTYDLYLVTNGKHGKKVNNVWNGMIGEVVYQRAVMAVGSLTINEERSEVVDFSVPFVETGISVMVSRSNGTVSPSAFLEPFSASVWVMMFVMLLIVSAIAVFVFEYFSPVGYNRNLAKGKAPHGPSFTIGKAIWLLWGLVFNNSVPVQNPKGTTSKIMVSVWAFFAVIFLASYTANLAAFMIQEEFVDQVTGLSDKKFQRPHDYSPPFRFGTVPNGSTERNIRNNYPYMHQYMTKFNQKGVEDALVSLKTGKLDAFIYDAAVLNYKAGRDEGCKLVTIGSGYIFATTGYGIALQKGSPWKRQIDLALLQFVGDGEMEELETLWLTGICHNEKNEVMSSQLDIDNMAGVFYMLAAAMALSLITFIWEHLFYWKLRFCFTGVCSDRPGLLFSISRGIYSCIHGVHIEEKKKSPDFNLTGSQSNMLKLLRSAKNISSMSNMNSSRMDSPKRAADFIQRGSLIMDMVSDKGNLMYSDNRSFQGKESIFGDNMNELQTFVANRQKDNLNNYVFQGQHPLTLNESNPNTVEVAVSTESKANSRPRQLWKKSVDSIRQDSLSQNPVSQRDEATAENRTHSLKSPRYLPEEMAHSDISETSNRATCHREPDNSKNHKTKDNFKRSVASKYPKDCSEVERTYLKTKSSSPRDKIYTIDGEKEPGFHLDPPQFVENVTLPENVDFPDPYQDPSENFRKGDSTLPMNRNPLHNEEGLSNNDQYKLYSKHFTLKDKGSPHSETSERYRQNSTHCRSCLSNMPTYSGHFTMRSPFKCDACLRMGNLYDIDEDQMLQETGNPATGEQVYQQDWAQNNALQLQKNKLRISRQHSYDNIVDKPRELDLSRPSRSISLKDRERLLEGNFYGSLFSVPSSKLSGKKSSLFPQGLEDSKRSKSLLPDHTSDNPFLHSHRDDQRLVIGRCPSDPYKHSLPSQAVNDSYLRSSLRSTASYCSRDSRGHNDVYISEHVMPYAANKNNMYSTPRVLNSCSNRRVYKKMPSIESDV
T3 sequence (Q14957 20-1233, other chains not shown): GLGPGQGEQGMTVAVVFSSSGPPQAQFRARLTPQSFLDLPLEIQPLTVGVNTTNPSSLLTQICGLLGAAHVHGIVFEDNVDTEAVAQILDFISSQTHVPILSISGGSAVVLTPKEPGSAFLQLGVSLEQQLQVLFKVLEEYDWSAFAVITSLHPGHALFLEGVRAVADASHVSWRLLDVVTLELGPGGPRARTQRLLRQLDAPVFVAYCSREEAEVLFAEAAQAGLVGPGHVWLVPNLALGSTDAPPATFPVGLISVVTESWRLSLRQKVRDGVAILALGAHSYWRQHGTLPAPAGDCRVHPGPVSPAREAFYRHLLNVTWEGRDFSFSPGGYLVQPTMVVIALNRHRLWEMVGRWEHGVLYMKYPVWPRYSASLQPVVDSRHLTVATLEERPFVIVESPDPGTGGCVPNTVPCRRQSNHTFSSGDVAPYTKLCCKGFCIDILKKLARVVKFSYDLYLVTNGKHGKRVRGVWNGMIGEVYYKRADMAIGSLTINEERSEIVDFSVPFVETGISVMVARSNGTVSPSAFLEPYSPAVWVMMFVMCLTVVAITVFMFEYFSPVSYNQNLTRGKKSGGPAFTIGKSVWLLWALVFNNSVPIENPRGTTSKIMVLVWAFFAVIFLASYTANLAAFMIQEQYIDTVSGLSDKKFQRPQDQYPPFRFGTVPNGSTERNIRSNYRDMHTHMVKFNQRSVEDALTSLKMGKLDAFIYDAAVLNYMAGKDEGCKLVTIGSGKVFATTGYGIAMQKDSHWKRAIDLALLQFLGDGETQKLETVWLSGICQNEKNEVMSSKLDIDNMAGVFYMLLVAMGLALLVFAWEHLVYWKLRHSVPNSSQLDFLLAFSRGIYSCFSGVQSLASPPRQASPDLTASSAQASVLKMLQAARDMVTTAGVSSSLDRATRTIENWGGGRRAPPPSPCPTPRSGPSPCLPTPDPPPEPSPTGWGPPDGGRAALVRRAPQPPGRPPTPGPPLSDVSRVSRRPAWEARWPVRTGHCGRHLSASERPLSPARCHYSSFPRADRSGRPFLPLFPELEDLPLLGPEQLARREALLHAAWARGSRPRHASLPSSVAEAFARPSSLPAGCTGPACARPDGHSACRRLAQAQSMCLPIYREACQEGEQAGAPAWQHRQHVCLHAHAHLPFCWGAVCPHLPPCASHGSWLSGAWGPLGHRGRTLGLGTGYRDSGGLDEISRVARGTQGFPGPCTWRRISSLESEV
T1 sequence (Q13224 27-1484, other chains not shown): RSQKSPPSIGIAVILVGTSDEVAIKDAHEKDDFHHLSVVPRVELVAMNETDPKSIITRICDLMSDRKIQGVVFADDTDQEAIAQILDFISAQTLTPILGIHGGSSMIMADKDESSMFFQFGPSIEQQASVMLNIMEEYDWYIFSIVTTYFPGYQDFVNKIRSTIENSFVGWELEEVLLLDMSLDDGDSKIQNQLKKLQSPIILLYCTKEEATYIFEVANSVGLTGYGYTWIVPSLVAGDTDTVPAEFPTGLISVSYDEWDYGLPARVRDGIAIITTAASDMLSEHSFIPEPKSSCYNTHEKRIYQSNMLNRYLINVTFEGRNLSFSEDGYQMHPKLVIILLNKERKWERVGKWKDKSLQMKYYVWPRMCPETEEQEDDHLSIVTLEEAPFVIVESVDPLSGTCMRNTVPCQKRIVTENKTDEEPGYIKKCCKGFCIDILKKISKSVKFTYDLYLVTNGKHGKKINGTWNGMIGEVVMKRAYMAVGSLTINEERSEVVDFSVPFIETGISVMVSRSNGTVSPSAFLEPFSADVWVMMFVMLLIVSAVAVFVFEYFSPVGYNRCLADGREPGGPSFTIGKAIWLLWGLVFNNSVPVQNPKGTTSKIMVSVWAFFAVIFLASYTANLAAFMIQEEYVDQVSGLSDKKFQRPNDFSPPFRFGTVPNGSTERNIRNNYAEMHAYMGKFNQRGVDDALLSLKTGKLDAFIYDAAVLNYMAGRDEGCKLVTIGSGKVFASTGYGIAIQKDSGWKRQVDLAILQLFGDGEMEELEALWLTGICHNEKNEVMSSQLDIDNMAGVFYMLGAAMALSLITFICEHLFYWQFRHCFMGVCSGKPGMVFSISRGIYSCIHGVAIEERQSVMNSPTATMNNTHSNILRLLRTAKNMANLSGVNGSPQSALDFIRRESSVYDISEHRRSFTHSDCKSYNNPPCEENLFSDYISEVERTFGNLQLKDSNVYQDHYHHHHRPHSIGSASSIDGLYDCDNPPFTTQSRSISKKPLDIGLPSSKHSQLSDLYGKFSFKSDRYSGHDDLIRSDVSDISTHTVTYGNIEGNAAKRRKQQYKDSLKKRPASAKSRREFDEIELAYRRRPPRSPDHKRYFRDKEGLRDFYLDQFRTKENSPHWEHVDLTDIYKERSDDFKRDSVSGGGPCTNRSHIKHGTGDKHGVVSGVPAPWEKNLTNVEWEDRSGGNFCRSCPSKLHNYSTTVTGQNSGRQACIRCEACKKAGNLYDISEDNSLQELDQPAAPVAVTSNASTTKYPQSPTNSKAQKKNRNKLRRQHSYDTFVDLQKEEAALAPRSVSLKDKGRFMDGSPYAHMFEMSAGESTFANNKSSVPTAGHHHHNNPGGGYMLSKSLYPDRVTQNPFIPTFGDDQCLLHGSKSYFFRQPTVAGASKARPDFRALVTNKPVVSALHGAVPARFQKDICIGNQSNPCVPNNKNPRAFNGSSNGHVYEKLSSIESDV

SMILES: O=C(O)c1cccnc1C(=O)O [Quinolinic acid]
- EC50 [1]: 518 ± 35 µM
- calcium response (mean±SEM) [2, 6]: 3.7 ± 1.3
- calcium response (mean±SEM) [2, 7]: 27 ± 2.2
- calcium response (mean±SEM) [2, 8]: 27 ± 0.8
- calcium response (mean±SEM) [2, 9]: 27 ± 1.5
- EC50 ([2]; 10 μM glycine, read-out: EC50): 170 µM
- % effect on calcium entry, 100 QA [2, 10]: 0.9 ± 0.7%
- calcium entry in CRC ([2]; 333 μM quinolinic acid, 10 μM glycine): 23±3.0%
- calcium response (mean±SEM) ([2]; 1000 μM QA, 10 μM glycine): 37 ± 1.3
- % effect on calcium entry, 1000 QA [2, 11]: 37±1.3%
- % effect on calcium entry, 1000 QA [2, 12]: 37 ± 1.3%
- Minimal response (%) [2, 13]: −2.1%
- Response at max conc (%) ([2]; 10 μM glycine): 25%
- Response at max conc (%) ([2]; 10 μM glycine, listed as quinolinic acid): 25±2.1%
- calcium response (mean±SEM) [3, 6]: 26 ± 1.2
- calcium response (mean±SEM) [3, 7]: 53 ± 2.3
- calcium response (mean±SEM) [3, 8]: 93 ± 1.0
- calcium response (mean±SEM) [3, 9]: 58 ± 1.6
- EC50 ([3]; 10 μM glycine, read-out: EC50): 520 µM
- % effect on calcium entry, 100 QA [3, 10]: −0.1 ± 0.4%
- calcium response (mean±SEM) ([3]; 1000 μM QA, 10 μM glycine): 55 ± 1.1
- % effect on calcium entry, 1000 QA [3, 11]: 55±1.1%
- % effect on calcium entry, 1000 QA [3, 12]: 55 ± 1.1%
- Minimal response (%) [3, 13]: −1.3%
- Response at max conc (%) [3, 14]: 50%
- calcium response (mean±SEM) [4, 6]: −2.0 ± 1.1
- calcium response (mean±SEM) [4, 7]: −4.1 ± 0.9^
- calcium response (mean±SEM) [4, 8]: 27 ± 1.1
- calcium response (mean±SEM) [4, 9]: 6.6 ± 0.8
- EC50 ([4]; 10 μM glycine, read-out: EC50): > 1000 µM
- % effect on calcium entry, 100 QA [4, 10]: −2.8 ± 0.6%
- calcium response (mean±SEM) ([4]; 1000 μM QA, 10 μM glycine): −5.5 ± 0.4^
- % effect on calcium entry, 1000 QA [4, 11]: −5.5 ± 0.4^ %
- Minimal response (%) [4, 13]: −4.0%
- intracellular calcium increase elicited by 0.2 μM L-glutamate ([4]; plus 1000 μM quinolinic acid, 10 μM glycine): 6.6±0.8%
- Response at max conc (%) [4, 14]: −4.0%
- calcium response (mean±SEM) [5, 6]: 7.5 ± 0.4
- calcium response (mean±SEM) [5, 7]: 41 ± 1.0
- calcium response (mean±SEM) [5, 8]: 26 ± 0.6
- calcium response (mean±SEM) [5, 9]: 46 ± 0.9
- EC50 ([5]; 10 μM glycine, fit with maximal response constrained at 75%, read-out: EC50): 850 µM
- % effect on calcium entry, 100 QA [5, 10]: 2.5 ± 0.3%
- calcium response (mean±SEM) ([5]; 1000 μM QA, 10 μM glycine): 41 ± 1.2
- % effect on calcium entry, 1000 QA [5, 11]: 41±1.1%
- % effect on calcium entry, 1000 QA [5, 12]: 41 ± 1.2%
- % effect on calcium entry, 1000 QA ([5]; 1000 μM QA, 10 μM glycine, 100% = 10 μM L-glutamate plus 10 μM glycine, listed as quinolinic acid): 41±1.2%
- Minimal response (%) [5, 13]: −1.9%
- Response at max conc (%) [5, 14]: 40%
